Laboratory results published in PMC11002875, “Linking triphenylphosphonium cation to a bicyclic hydroquinone improves their antiplatelet effect via the regulation of mitochondrial function” (Redox Biology, 2024).
Where two headings read alike, the source gives them in different places.

Assays:
[1] = test system: Washed platelets; test: Platelet aggregation in washed platelets (aggregometer); assay type: cell-based, Human; conditions: washed platelets
Procedure: (§1) Human platelet purification. The blood sample was obtained from voluntary donors (10 days without antiplatelet medication) who agreed to participate after signing informed consent (Scientific Ethics Committee of the University of Talca N° 04–2022). Briefly, blood anticoagulated with acid-citrate-dextrose (ACD) was obtained in a 4:1 v/v ratio. The sample was centrifuged for 12 min at 250 g to obtain platelet-rich plasma (PRP). Subsequently, the PRP was centrifuged for 8 min at 900 g to obtain the platelet pellet. The plasma supernatant was removed, and the platelets were resuspended in Tyrodes buffer without calcium plus ACD in a ratio of 5:1 v/v. The platelets were centrifuged once more for 8 min at 900 g and the pellet was resuspended in Tyrodes buffer without calcium. Finally, the platelets were counted (Mindray BC-3000 Plus hematology counter, Japan), adjusted to the desired concentration, and used within 3 h.
Platelet aggregation. Washed platelets (200-250 × 10^6 platelets/mL) were preincubated with 2 mM CaCl2 and then with the compounds under study for 5 min at 37 °C in the aggregometer (Agg RAM- Helena Biosciences). Aggregation was initiated with the agonists: collagen 2 μg/mL; convulxin 20 ng/mL; TRAP-6 (Thrombin receptor activator peptide 6) 5 μM; PMA (Phorbol myristate acetate) 100 nM or arachidonic acid 250 μg/mL. The aggregation curve was evaluated for 5 min at 37 °C in shaking at 1000 rpm.

[2] = test system: Washed platelets; test: Platelet activation markers in washed platelets (flow cytometry); assay type: cell-based, Human; conditions: collagen 2 μg/mL; compounds 1, 5 and 10 μM; vs activated control
Procedure: as §1
Platelet activation markers. Washed platelets (200-250 × 10^6 platelets/mL) were incubated with the compounds (1, 5 and 10 μM), then activated with collagen 2 μg/mL and incubated for 5 min at 37 °C. Aliquots of the reaction were then collected and labeled separately with human antibodies (BD Biosciences, San José, CA, USA) for P-selectin, CD63, activated GPIIb/IIIa (PAC-1), and fibrinogen to assess the levels of each marker on the platelet membrane. The sample was acquired using the BD Facs Lyric flow cytometer (BD Biosciences, USA). Representative dot plots are available in Supplementary Figures 8-11 and 20-23. In the case of the activation markers P-selectin and bound fibrinogen in PRP, the same procedure for washed platelets was performed with representative dot plots available in Supplementary Figs. 15 and 16. The platelet population was identified with anti-CD61-PE or anti-CD61-FITC (BD Biosciences, San José, CA, USA).

[3] = test system: Washed platelets; test: Mitochondrial membrane potential (TMRM); assay type: cell-based, Human; conditions: compounds 1, 5 and 10 μM, 20 min
Procedure: as §1
Mitochondrial membrane potential (ΔΨm). Washed platelets (50 × 10^6 platelets/mL) were labeled with a 100 nM tetramethylrhodamine methyl ester (TMRM) probe and incubated with compounds (1, 5 and 10 μM) for 20 min at 37 °C. The sample was acquired in the BD Facs Lyric flow cytometer (BD Biosciences, USA). Representative dot plots are available in Supplementary Figs. 12, 24, and 25. Carbonyl cyanide 4-(trifluoromethoxy) phenylhydrazone (FCCP) 1 μM was used as a control for decreasing the mitochondrial membrane potential.

[4] = test system: Washed platelets; test: Intraplatelet (cytosolic) ROS levels (DHE); assay type: cell-based, Human; conditions: compounds 1, 5 and 10 μM, 10 min
Procedure: as §1
Intraplatelet ROS levels. Washed platelets (50 × 10^6 platelets/mL) were labeled with the dihydroethidium (DHE) probe 10 μM and incubated for 20 min at 37 °C protected from light. After, compounds (1, 5, and 10 μM) were added to the platelets and incubated for 10 min at 37 °C. The sample was acquired in the BD Facs Lyric flow cytometer (BD Biosciences, USA). Representative dot plots are available in Supplementary Figs. 18 and 27. As a positive control for ROS, antimycin A 20 μM was used.

[5] = test system: Washed platelets; test: Intraplatelet calcium levels (Fluo-4-AM); assay type: cell-based, Human; conditions: compounds 1, 5 and 10 μM, 10 min
Procedure: as §1
Intraplatelet calcium levels. Washed platelets (200-250 × 10^6 platelets/mL) were labeled Fluo-4-AM probe with 0.5 μM and incubated for 20 min at room temperature protected from light. Subsequently, platelets were adjusted to a count of 50 × 10^6 platelets/mL, and compounds (1, 5, and 10 μM) were added and incubated for 10 min at 37 °C. The sample was acquired in the BD Facs Lyric flow cytometer (BD Biosciences, USA). Representative dot plots are available in Supplementary Figs. 13 and 26. As a control for increased intracellular calcium, P-trifluoromethoxyphenylhydrazone carbonylcyanide (FCCP) 1 μM was used.

[6] = test system: Washed platelets; test: Cellular cytotoxicity by release of lactate dehydrogenase (LDH); assay type: cell-based, Human; conditions: screening at 10–100 μM
Procedure: as §1
Cellular cytotoxicity by the release of lactate dehydrogenase (LDH). Washed platelets (200-250 × 10^6 platelets/mL) were incubated with the compounds under study or vehicle for 15 min at 37 °C. Then, the platelets were centrifuged at 900 g for 8 min to collect the supernatant. […] The absorbance was analyzed at 490 nm (Microplate Reader Thermo Scientific Multiskan Go, Finland).

[7] = test system: platelets; test: Oxygen consumption and extracellular acidification rate (Seahorse XFe24); assay type: cell-based, Human; conditions: 10 µM
Procedure: as §1
Oxygen consumption and extracellular acidification rate. Oxygen consumption rate (OCR) and extracellular acidification rate (ECAR) were measured with a Seahorse XFe24 extracellular flux analyzer (Agilent, Santa Clara, CA, USA). Briefly, 100 μL of platelets washed in modified Tyrode-HEPES buffer were deposited (20–25 × 10^6 cells/well) and then centrifuged at 300 g for 10 min. Platelets were incubated with NP4 10 μM for 5 min, and then Tyrode's-HEPES buffer was removed and Seahorse medium (8.3 g/L DMEM, 1.85 g/L NaCl, 5 mM glucose, 1 mM pyruvate, 2 mM glutamine, 5 mM HEPES, pH 7.4) was added to a final volume of 600 μL [70]. OCR was measured before and after the sequential addition of 3 μg/mL collagen, 2.5 μM oligomycin, 1.4 μM FCCP, and 2 μM/2 μM antimycin A/rotenone. Non-mitochondrial OCR was subtracted from all measurements. Respiratory parameters obtained with Mito Stress Test (Supplementary Table 1) were calculated as follows: Baseline (baseline OCR), collagen (OCR after collagen addition), activation (collagen-basal), ATP-independent or proton leak (OCR resistant to oligomycin addition), ATP-linked respiration (basal-proton leak), maximum (OCR obtained after addition of FCCP), and spare (maximal-basal), coupling efficiency (OCR Basal – OCR ATP-indep)/OCR Basal). Respiratory parameters were calculated according to Refs. [66, 70, 73].

[8] = Homo sapiens, Platelet, PMA 100 nM, read-out: IC50 for platelet aggregation, PMA
[9] = Homo sapiens, Platelet, TRAP-6 5 μM, read-out: IC50 for platelet aggregation, TRAP-6
[10] = Homo sapiens, Platelet, arachidonic acid 250 μg/mL, read-out: IC50 for platelet aggregation, Arachidonic Acid
[11] = Homo sapiens, Platelet, collagen 2 μg/mL, read-out: IC50 for platelet aggregation, Collagen

Row | Structure (SMILES) | IC50 [1, 8] [µM] | IC50 [1, 9] [µM] | IC50 [1, 10] [µM] | IC50 [1, 11] [µM] | Bound fibrinogen platelet activation marker [2] | CD63 platelet activation marker [2] | PAC-1 (activated GPIIb/IIIa) platelet activation marker [2] | Mitochondrial membrane potential (ΔΨm) [3] | Cytosolic total ROS levels [4] | Intraplatelet calcium levels [5] | also measured
1 | CCCCC1=CC(C)(C)c2c(O)c(C)c(C)c(O)c2C1=O [NH4, 2-Butyl-5,8-dihydroxy-4,4,6,7-tetramethylnaphthalen-1(4H)-one] | > 20 | > 20 | > 20 | 4.76 ± 0.7 | did not have significant effects | did not have significant effects | did not have significant effects | significantly decrease | neither NP4 nor NH4 significantly affected | increase it significantly | 
2 | CCCCC1=CC(C)(C)c2c(OC)c(C)c(C)c(O)c2C1=O [NHO4, 2-Butyl-8-hydroxy-5-methoxy-4,4,6,7-tetramethylnaphthalen-1(4H)-one] | > 20 | > 20 | > 20 | 18.4 ± 5.26 |  |  |  |  |  |  | 
3 | COc1c(C)c(C)c(O)c2c1C(C)(C)C=C(CCCC[P+](c1ccccc1)(c1ccccc1)c1ccccc1)C2=O.[Br-] [NPO4, (4-(8-hydroxy-5-methoxy-4,4,6,7-tetramethyl-1-oxo-1,4-dihydronaphthalen-2-yl)butyl)triphenyl phosphonium bromide] |  |  |  |  |  |  |  |  |  |  | Cytotoxicity by LDH release (screening) [6]: *NPO4 was excluded because showed high cytotoxicity; melting point: 91.5 to 93 °C
4 | CCCC[P+](c1ccccc1)(c1ccccc1)c1ccccc1 [TPPBut, butyltriphenylphosphonium cation, reference compound] |  |  |  |  | did not show any effect | did not show any effect | did not show any effect | did not show any effect | did not show any effect | did not show any effect | IC50 ([1]; PMA 100 nM, read-out: IC50 for platelet aggregation, PMA): > 20 µM; IC50 ([1]; TRAP-6 5 μM, read-out: IC50 for platelet aggregation, TRAP-6): > 20 µM; IC50 ([1]; arachidonic acid 250 μg/mL, read-out: IC50 for platelet aggregation, Arachidonic Acid): > 20 µM; IC50 ([1]; collagen 2 μg/mL, read-out: IC50 for platelet aggregation, Collagen): 13.7 ± 2.27 µM; IC50 ([1]; convulxin 20 ng/mL, read-out: IC50 for platelet aggregation, Convulxin): > 20 µM; P-selectin platelet activation marker [2]: did not show any effect; ATP-dep (OCRBasal – OCRATP-indep) [7]: 5,68 ± 0,10; Activation (OCRCollagen – OCRBasal) [7]: 0,59 ± 0,20; Coupling efficiency ((OCRBasal – OCRATP-indep)/OCRBasal) [7]: 0,92 ± 0,01; Spare (OCRMaximum – OCRBasal) [7]: 0,73 ± 0,27; Basal (OCR/10^6 platelets) ([7]; Seahorse Mito Stress Test): 6,21 ± 0,08 OCR/10^6 platelets; Maximum (OCR/10^6 platelets) ([7]; after 1.4 μM FCCP): 6,94 ± 0,19 OCR/10^6 platelets; Collagen (OCR/10^6 platelets) ([7]; after 3 μg/mL collagen): 6,80 ± 0,16 OCR/10^6 platelets; Non-mito (OCR/10^6 platelets) ([7]; after antimycin A/rotenone): 0,01 ± 0,02 OCR/10^6 platelets; ATP-indep (OCR/10^6 platelets) ([7]; proton leak, after 2.5 μM oligomycin): 0,52 ± 0,05 OCR/10^6 platelets
5 | Cc1c(C)c(O)c2c(c1O)C(=O)C(CCCCBr)=CC2(C)C [NB4, 2-(4-bromobutyl)-5,8-dihydroxy-4,4,6,7-tetramethylnaphthalen-1(4H)-one] | > 20 | > 20 | > 20 | 15.3 ± 2.61 |  |  |  |  |  |  | 
6 | COc1c(C)c(C)c(O)c2c1C(C)(C)C=C(CCCCBr)C2=O [NBO4, 2-(4-bromobutyl)-8-hydroxy-5-methoxy-4,4,6,7-tetramethylnaphthalen-1(4H)-one] | > 20 | > 20 | > 20 | 4.87 ± 1.15 |  |  |  |  |  |  | 
